Laboratory results: patent publication US8309107B2, “Stable solutions of orlistat for pharmaceutical dosage forms” (Banner Pharmacaps, Inc., priority 2008, dated 2012)

Test: Compatibility of orlistat with surfactants
Format: physicochemical
Settings: Chremophor EL emulsifying agent

CCCCCCCCCCC[C@@H](C[C@@H]1OC(=O)[C@H]1CCCCCC)OC(=O)[C@H](CC(C)C)NC=O [orlistat]
effect of surfactant on degradation of orlistat: accelerate degradation
